Data: patent US20260083126A1, “ANTIMICROBIAL COMPOSITIONS” (AHV International B.V., priority 2022, published 2026)
Values after ≈ are worked out from the molar mass of the structure shown. “Also recorded” adds a separate entry of the source. Where two headings read alike, the source gives them in different places.

Key:
[1] = tested on: Klebsiella pneumoniae ATCC 13883; assay: MIC assay; assay type: cell-based; conditions: for MIC50 Klebsiella pneumoniae / MIC90 Klebsiella pneumoniae / MIC50 / MIC90: Example 2a, n = 3, ATCC 13883; for MIC50 / MIC90: Klebsiella pneumoniae, ATCC13883
Description: (§1) The exact weighed amount was noted and the volume of solvent to reach a 80 mM dilution calculated. Half of the volume was added first, by adding Tween 80 and let stand for 5 minutes. In a second step, the other half of the volume DMSO was added and resuspended to help the dilution process. The closed tube was inverted 5-10 times and then vortexed very thoroughly for at least 30 seconds. If after this procedure crystals were still visible, the tube was placed in a shaker at 37° C. at 150 rpm for at least 30 minutes (it is indicated if the dissolution period was longer than 2 h). […] In case of Bis(4-Chlorophenyl) thiosulfonate, a lower concentrated stock solution of 2 mM needed to be prepared. For that, the required amount of compound was weighed in and 2% v/v Tween80 and 2% v/v DMSO of the end volume of the stock solution was added to the substance. This mix was heated in a water bath set to 40° C. and occasionally shaken. When the whole amount of the substance reached dissolution, the volume was filled up with growth medium until the end volume. This 2 mM stock solution of Bis(4-Chlorophenyl) thiosulfonate was used in the MIC plate and diluted two-fold, resulting in a testing range of Bis(4-Chlorophenyl) thiosulfonate from 1 mM to 0.002 mM.
(§2) The microorganisms as indicated in Table 4 were used to inoculate a tryptic soy agar (TSA) plate and incubated overnight at 37° C. After incubation 3-5 well-isolated colonies with the same morphology were selected from the TSA plate and resuspended in 2 mL 0.9% saline solution with 3-6 glass beads and vortexed. The optical density at 600 nm (OD600) of the bacterial suspension was measured with a spectrophotometer (Evolution™ 201/220 UV-Visible Spectrophotometer, Thermo Fisher Scientific) and diluted to an OD600 of 0.0008, which resembles 10^6 CFU/mL.
(§3) The MIC assay was performed in a flat-bottom 96-microtiter plate. 50 μL of MHB-II was added into columns 2-11, and 100 μL to column 12 for sterility control. 100 μL of the 8 mM test compound solution (method 1) was added to column 1. A two-fold dilution series of the solution in MHB-II was achieved by resuspending 50 μL of the 8 mM solution from column 1 to column 2. This step was repeated until column 10. The respective concentration of Tween 80 and DMSO in column 1 was 2.5%, which is two-fold diluted throughout the plate. 50 μL of the bacterial suspension was added to column 1-11. The microtiter plates were sealed with adhesive polyethylene film for sealing microplates (Diversified Biotech) and incubated for 24 h at 37° C. After incubation the OD was measured at 600 nm with the Varioskan (Thermo Fisher Scientific). The minimal concentration which causes reduction of final OD600 of the bacterial culture by 50% (MIC50) and by 90% (MIC90) was calculated after normalization of the obtained OD values to the growth control in column 11. This assay was repeated three times in three independent experiments.
(§4) Hereafter, the stock solutions of the compounds were used in three repetitions in a minimal inhibitory concentration (MIC) assay at a 2-fold dilution range with various bacteria from the gram-positive and gram-negative group and a yeast, Candida albicans. The concentrations that show only less than 10% growth after 24 h were considered the MIC90-values, whereas the concentrations that show 50% growth after 24 h when compared to the bacterial growth control were considered the MIC50-values. Escherichia coli and Staphylococcus aureus were used as representatives for a gram-negative bacteria and gram-positive bacteria, respectively. Furthermore, the yeast C. albicans was also tested.
(§5) In an Eppendorf tube between 10-20 mg of the test compound was weighed. Hereafter, the required amount of Tween 80 was added, followed by the amount DMSO. After vigorous shaking, the dissolved and transparent dilutions were diluted 10 times with Mueller Hinton Broth (MHB) for the MIC assay. […]

[2] = tested on: Escherichia coli ATCC 25922; assay: MIC assay; assay type: cell-based; conditions: for MIC50 / MIC90: Escherichia coli, ATCC25922
Description: as §1, §2, §3, §4, §5

[3] = tested on: Streptococcus Suis Type 2 21-018358-002; assay: MIC assay; assay type: cell-based; conditions: for MIC50 / MIC90: Streptococcus suis
Description: as §1, §2, §3, §4, §5

[4] = tested on: HepG2 cell line; assay: MTT cytotoxicity test; assay type: cell-based, human; conditions: 24 h, 7.8 μM to 1 mM, emulsified with Tween-80/DMSO
Description: Scope. As standard tests cytotoxicity is measured on Caco-2 and HepG2 cell lines. Cytotoxicity of mentioned cell lines was determined by measuring the amount of converted MTT (3-(4,5-dimethylthiazol-2-yl)-2,5-diphenyltetrazolium bromide) by a mitochondrial dehydrogenase after exposure of various concentrations of the antimicrobial compounds. In living cells the dehydrogenase converts the soluble MTT into water insoluble purple formazan crystals that can not pass the cell membrane. The higher the metabolic activity of the cell, the more purple crystals are formed, the lower the cytotoxicity of the antimicrobial compound. HepG2 adherent cells were isolated from human liver and show epithelial morphology. Culture condition of the cells were followed based on the standard protocols. HepG2 cell line was cultured in 75-cm^2 culture flasks. Dulbecco's modified Eagle's minimum essential medium (DMEM)+Glutamax, supplemented with 10% (v/v) inactivated fetal calf serum (FCS) (Gibco), and penicillin (100 U/ml.)/streptomycin (100 μg/ml.) was utilized as medium for the growing cells. The cells were preserved in an incubator to provide them with the optimum moisture and temperature (humidified atmosphere of 95% air and 5% CO2 at 37° C. for 72 hours). The cells were grown on flat bottom 96-well plates to the appropriate density to run the experiments. The cells were exposed to increasing concentrations of emulsified test compound (8 concentration, ranging from 7.8 μM to 1 mM) in standard culture medium (Catalogue 31331028, ThemoFischer Scientific) for each cell line. It should be noted that all the experiments were conducted in FBS (Catalog A3840101, ThermoFischer Scientific) and antibiotic free medium. The concentration of Tween-80 and DMSO that is present in the assay to emulsify the antimicrobial compound was in the range from 0,007% to 1%. The cells were incubated for 24 h with emulsified test compound and the assay was performed based on the standard protocol. By the end of the experiment the medium (cell supernatants) was removed and the lysis buffer (0.04 M hydrochloric acid, in propan-2-ol) was added to each well to solubilize the purple formazan crystals. As the final step, the absorbance was recorded by a multi-well reader at 595 nm. Control experiment with emulsifiers Tween 80 and DMSO but without antimicrobial compounds was performed in a same way on both cell lines. The results from all experiments were expressed as mean #standard error of the mean (SEM) conducted in triplicate (three wells/condition) of three independent experiments. Differences between results were statistically evaluated using One-way ANOVA with Bonferroni post-hoc test.

[5] = tested on: Lactococcus garvie Isolate 2; assay: MIC assay; assay type: cell-based, Lactococcus garvieae; conditions: for MIC50 / MIC90: Lactococcus
Description: as §1, §2, §3, §4, §5

[6] = Example 2a, n = 3, 21-018358-002
[7] = Example 2a, n = 3, ATCC 25922, read-out: MIC90 Escherichia coli
[8] = Example 2b, FIG. 1, no MIC90 detected in the tested range, read-out: Average MIC90 E. coli (Ec)
[9] = Example 2a, n = 3, 21-018358-002, read-out: MIC90 Streptococcus Suis Type 2 (+)
[10] = Example 2a, n = 3, Isolate 2, read-out: MIC90 Lactococcus garvie (+)
[11] = Example 2b, FIG. 1, no MIC90 detected in the tested range, read-out: Average MIC90 L. garvieae (Lg)

MIC50 Klebsiella pneumoniae [1] | MIC90 Klebsiella pneumoniae [1] | MIC50 Escherichia coli ([2]; Example 2a, n = 3, ATCC 25922) | MIC90 Escherichia coli ([2]; Example 2a, n = 3, ATCC 25922) | MIC50 Streptococcus Suis Type 2 (+) [3, 6] | MIC90 Streptococcus Suis Type 2 (+) [3, 6] | MIC50 Lactococcus garvie (+) ([5]; Example 2a, n = 3, Isolate 2) | MIC90 Lactococcus garvie (+) ([5]; Example 2a, n = 3, Isolate 2) | SMILES | cytotoxic effect on HepG2 cells (MTT) [4] | MIC50 [1] | MIC90 [1] | MIC50 ([2]; Example 2a, n = 3, ATCC 25922) | MIC90 [2, 7] | MIC90 [2, 8] | MIC50 [3, 6] | MIC90 [3, 9] | MIC50 ([5]; Example 2a, n = 3, Isolate 2) | MIC90 [5, 10] | MIC90 [5, 11] | also measured
– | – | – | – | – | – | – | – | Clc1ccc(SSc2ccc(Cl)cc2)cc1 [Bis (4-chlorophenyl) disulfide, Bis(4-chlorophenyl) disulfide] | cytotoxic effects | > 4 mM | > 4 mM | > 4000 µM | > 4 mM | > 1 mM | 60 µM (≈ 17.2 µg/mL) | 50 µM (≈ 14.4 µg/mL) | 1350 µM (≈ 388 µg/mL) | > 4 mM | > 1 mM | MIC90 ([3]; Example 2b, FIG. 1, no MIC90 detected in the tested range, read-out: Average MIC90 S. suis (Ss)): > 1000 µM
2.50 mM (≈ 676 µg/mL) | >4 mM | 1.00 mM (≈ 270 µg/mL) | >4 mM | 0.38 mM (≈ 103 µg/mL) | 0.83 mM (≈ 224 µg/mL) | 0.13 mM (≈ 35.1 µg/mL) | 0.83 mM (≈ 224 µg/mL) | [O-][S+](Sc1ccc(F)cc1)c1ccc(F)cc1 (centres unmarked) [Bis (4-fluorophenyl) thiosulfinate, Bis(4-fluorophenyl) thiosulfinate] | – | – | – | – | – | – | – | – | – | – | – | –
– | – | – | – | – | – | – | – | Fc1ccc(SSc2ccc(F)cc2)cc1 [Bis (4-fluorophenyl) disulfide, Bis(4-fluorophenyl) disulfide] | cytotoxic effects | > 4 mM | > 4 mM | 1250 µM (≈ 318 µg/mL) | > 4 mM | > 4 mM | 380 µM (≈ 96.6 µg/mL) | 1670 µM (≈ 425 µg/mL) | 250 µM (≈ 63.6 µg/mL) | > 4 mM | > 4 mM | Average MIC90 K. pneumoniae (Kp) ([1]; Example 2b, FIG. 1, no MIC90 detected in the tested range): above 4000 μM
– | – | – | – | – | – | – | – | CC(C)SS(=O)(=O)C(C)C [Di-isopropyl thiosulfonate] | cytotoxic effects; also recorded: cytotoxicity is lowest | – | – | – | – | – | – | – | – | – | – | –
>4 mM | >4 mM | 1.50 mM | >4 mM | 0.75 mM | 0.88 mM | 0.22 mM | 0.83 mM | O=S(=O)(Sc1ccc(F)cc1)c1ccc(F)cc1 [Bis (4-fluorophenyl) thiosulfonate, Bis(4-fluorophenyl) thiosulfonate] | – | – | – | – | – | – | – | – | – | – | – | –

SMILES | MIC50 Klebsiella pneumoniae [1] | MIC90 Klebsiella pneumoniae [1] | MIC50 Escherichia coli ([2]; Example 2a, n = 3, ATCC 25922) | MIC90 Escherichia coli ([2]; Example 2a, n = 3, ATCC 25922) | MIC50 Streptococcus Suis Type 2 (+) [3, 6] | MIC90 Streptococcus Suis Type 2 (+) [3, 6] | MIC50 Lactococcus garvie (+) ([5]; Example 2a, n = 3, Isolate 2) | MIC90 Lactococcus garvie (+) ([5]; Example 2a, n = 3, Isolate 2) | cytotoxic effect on HepG2 cells (MTT) [4] | MIC50 [1] | MIC90 [1] | MIC50 ([2]; Example 2a, n = 3, ATCC 25922) | MIC90 [2, 7] | MIC90 [2, 8] | MIC50 [3, 6] | MIC90 [3, 9] | MIC50 ([5]; Example 2a, n = 3, Isolate 2) | MIC90 [5, 10] | MIC90 [5, 11] | also measured
O=S(=O)(Sc1ccc(Cl)cc1)c1ccc(Cl)cc1 [Bis (4-chlorophenyl) thiosulfonate, Bis(4-chlorophenyl) thiosulfonate] | >1 mM | >1 mM | >1 mM | >1 mM | 0.13 mM | 0.37 mM | 0.09 mM | 0.50 mM | cytotoxic effects | – | – | – | – | – | – | – | – | – | – | –
